Common to all, as to assay: NCI-60 cell line screen, 48 h
The test system of assay [1] is NCI-H460 lung.
The subject of assay [2] is ACHN renal.
Assay [3] concerns A549 NSCLC.
For assay [4], the system named is IGROV1 ovarian.
The subject of assay [5] is HCT-15 colon.
In assay [6] the test system is SK-OV-3 ovarian.
For assay [7], the system named is KM12 colon.
Assay [8] has as its system SK-MEL-2 melanoma.
For assay [9], the system named is K-562 leukemia.
Assay [10] concerns HS 578T breast.

Where “and” joins values, the source holds several entries; their conditions need not be identical. Identical values can stand only once.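 Cells were grown in 96-well plates and exposed to each compound for 48 hours at five concentrations; endpoints were interpolated linearly between bracketing concentrations, or set to the highest concentration if not reached. The concentration for 50% growth inhibition is given as GI50. At the TGI there is no net growth.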 Bounds are passed on as bounds.

Regarding `CC(=O)[O-].CC(=O)[O-].[Pt+2].c1cscn1.c1cscn1`, the GI50 in assay [1] was over 100 µM; in assay [2], 19.7 µM; in [3], 45.1 µM; in assay [4], over 100 µM; in assay [5] it was 77.5 µM; in [6], over 100 µM. Also, the GI50 was over 100 µM in assay [7], over 100 µM in [8], 42.7 µM in assay [9] and over 100 µM in assay [10]. Also, the TGI in assay [1] was over 100 µM; in assay [2], 42.2 µM; in assay [3], over 100 µM; in [4], over 100 µM; in assay [5] it was over 100 µM; in assay [6] it was over 100 µM. Moreover, the TGI in assay [7], in assay [8], in assay [9] and in assay [10] was over 100 µM in each case.

As for `Cc1nc2sc(C(=O)Nc3cccc(Cl)c3C)c(N)c2cc1C(=O)/C=C/c1ccccc1`, the GI50 in [1] was 0.424 µM; in assay [2] it was 0.327 µM; in assay [3], 0.476 µM; in assay [4], 0.316 µM; in assay [5] it was 0.183 µM; in assay [6] it was 1.44 µM. Further, the GI50 is 0.479 µM in assay [7], 0.304 µM in assay [8], 0.251 µM in [9] and 0.38 µM in assay [10]. For the same compound, the TGI in assay [1] is 1.74 µM; in assay [2], 1.09 µM; in [3], 6.68 µM; in [4], 1.1 µM; in [5] it was 0.817 µM; in assay [6], 13 µM. The TGI in assay [7] was 1.5 µM; in assay [8], 8.61 µM; in assay [9] it was over 50 µM; in [10], over 13.5 µM.

Turning to `CN[C@@H](C)C(=O)N[C@H](C(=O)N1CCC[C@H]1C(=O)N[C@H]1c2ccccc2C[C@H]1OCC#CC#CCO[C@@H]1Cc2ccccc2[C@@H]1NC(=O)[C@@H]1CCCN1C(=O)[C@@H](NC(=O)[C@H](C)NC)C1CCCCC1)C1CCCCC1`, the GI50 was 2.66 µM in [1]; 14.4 µM in assay [2]; 15.5 µM in assay [3]; 6.41 µM in assay [4]; 17.5 µM in [5]; under 0.01 µM in assay [6]. For the same compound, the GI50 was 2.66 µM in [7], 1.18 µM in [8], 2 µM in assay [9] and 4.62 µM in [10]. Further, the TGI in [1] was 6.77 µM; in assay [2], 28.5 µM; in assay [3], 31.5 µM; in assay [4], 21 µM; in [5], 40 µM; in assay [6], under 0.01 µM. For the same compound, the TGI amounted to 7.96 µM in [7], 3.02 µM in assay [8], 4.66 µM in [9] and 12.1 µM in [10].

For `O=c1ccn(C2OC(CO)C(O)C2F)c(=O)[nH]1` (stereo not given), the GI50 in assay [1], in [2], in assay [3], in assay [4], in [5] and in assay [6] was over 1000 µM each time. Besides, the GI50 in assay [7], in assay [8], in assay [9] and in assay [10] was over 1000 µM each time. The TGI in assay [1], in [2], in assay [3], in assay [4], in assay [5] and in assay [6] was over 1000 µM each time. Also, the TGI in [7], in assay [8], in assay [9] and in assay [10] was over 1000 µM each time.

As for `CSc1ccc(C2=NN(C(=O)c3ccc(F)cc3)C(c3ccc(F)cc3)C2)cc1` (stereo not given), the GI50 was 13 µM in [1]; 12.7 µM in assay [2]; 11.7 µM in assay [3]; 4.91 µM in assay [4]; 5.39 µM in assay [5]; 16.9 µM in [6]. Besides, the GI50 in assay [7] was 2.2 µM; in assay [8], 18.8 µM; in [9], 3.91 µM; in [10] it was 34.2 µM. The TGI in assay [1] was determined as 28.7 µM; in assay [2] it was 25.4 µM; in assay [3], 26.9 µM; in [4], 18.8 µM; in assay [5], 20.5 µM; in assay [6], 31.1 µM. Besides, the TGI in [7] came to 5.83 µM; in [8], 34.6 µM; in [9] it was 16.6 µM; in assay [10], 64.2 µM.

`O=Cc1ccc(-c2cc(C=O)c(-c3cccs3)[nH]2)s1`: the GI50 in assay [1] was 48.2 µM; in assay [2], 78.6 µM; in assay [3], 29.8 µM; in [4] it was 30.8 µM; in assay [5], 74.8 µM; in assay [6] it was over 100 µM. Also, the GI50 in [7] was 50.8 µM; in assay [8], over 100 µM; in assay [9] it was 77.5 µM; in assay [10] it was over 100 µM. Besides, the TGI in assay [1] is 75 µM and > 100 µM; in assay [2] it was 75 µM and > 100 µM; in assay [3], 75 µM and > 100 µM; in [4], 75 µM and > 100 µM; in assay [5], 75 µM and > 100 µM; in assay [6], 75 µM and > 100 µM. Also, the TGI in assay [7] was 75 µM and > 100 µM; in assay [8] it was 75 µM and > 100 µM; in assay [9], 75 µM and > 100 µM; in assay [10], 75 µM and > 100 µM.

As for `COc1cc(OC)cc(C2CC(=O)Nc3c2c(C)nn3-c2nc3ccccc3[nH]2)c1` (stereo not given), the GI50 in assay [1] was 2.58 µM; in [2], 3.94 µM; in assay [3] it was 3.18 µM; in assay [4], 2.74 µM; in [5] it was 3.73 µM; in assay [6] it was 2.41 µM. For the same compound, the GI50 in assay [7] is 2.79 µM; in assay [8], 2.42 µM; in [9] it was 3.15 µM; in [10] it was 3.06 µM. The TGI in assay [1] was 6.1 µM; in assay [2] it was 42.4 µM; in assay [3], 15.5 µM; in assay [4] it was 7.76 µM; in assay [5] it was over 100 µM; in assay [6], 5.49 µM. Further, the TGI is 7.68 µM in assay [7], 5.88 µM in [8], over 100 µM in assay [9] and 39.9 µM in [10].
